Reference: ChEMBL document CHEMBL4725324, “In vitro and in vivo evaluation of the antimalarial MMV665831 and structural analogs” (Bioorg Med Chem Lett, 2020)
The source made the active and inactive calls. No cut-off for these calls is given here.

Assays:
Plasmodium falciparum = test: Antimalarial activity against Plasmodium falciparum 3D7 assessed as reduction in parasite growth incubated for 48 hrs; format: functional, organism-based; details: 3D7, 48 h
[1] = Stability in mouse plasma assessed as carboxylesterase-mediated reduction in parent compound incubated for over 120 mins; format: ADME, cell-free; details: 2 h
[2] = Stability in mouse hepatocytes assessed as half life; format: ADME, cell-based, Hepatocyte
Plasmodium berghei = test: Antimalarial activity against blood-stage Plasmodium berghei infected in mouse assessed as reduction in parasite growth at 40 mg/kg, po; format: functional, organism-based
[3] = Solubility of compound in CDCl3; format: physicochemical
[4] = Solubility of compound in D2O; format: physicochemical
[5] = Stability in D2O at 50 degC measured after 7 days HRMS analysis; format: physicochemical; details: 168 h; time 7 day
[6] = Stability in methanolic diethylamine at 40 degC measured after 2 days 1H-NMR analysis; format: physicochemical; details: 48 h; time 2 day
[7] = Drug metabolism in 0.1 M DCl in D20 assessed as ethyl 2-benzamido-4-deuterio-6-(dimethylaminomethyl)-7-hydroxy-benzothiophene-3-carboxylate formation at 90 degC after 24 hrs
[8] = Stability in methanolic diethylamine at 40 degC measured after 2 days HRMS analysis; format: physicochemical; details: 48 h; time 2 day
[9] = Stability in D2O at 90 degC measured after 1 day HRMS analysis; format: physicochemical; details: 24 h

Row | Compound | EC50 (Plasmodium falciparum) | further results
1 | CCOC(=O)c1c(NC(=O)c2ccc(OC)cc2)sc2c(O)c(CN(CC)CC)ccc12 | 66 nM | –
2 | CCOC(=O)c1c(NC(=O)c2ccccc2)sc2c(OC)c(CN(CC)CC)ccc12 | > 1000 nM | –
3 | CCN(CC)Cc1ccc2c(C(=O)OC)c(NC(=O)c3ccccc3)sc2c1O | 53 nM | –
4 | CCOC(=O)c1c(NC(=O)c2ccccc2)sc2c(O)c(CNC34CC5CC(CC(C5)C3)C4)ccc12 | 388 nM | –
5 | CCN(CC)Cc1ccc2c(C(=O)NC)c(NC(=O)c3ccccc3)sc2c1O | > 1000 nM | –
6 | CCOC(=O)c1c(NC(=O)c2ccc(Cl)cc2)sc2c(O)c(CN(CC)CC)ccc12 | 70 nM | –
7 | O[C@@H](c1cc(C(F)(F)F)nc2c(C(F)(F)F)cccc12)[C@H]1CCCCN1 [(S,R)-MEFLOQUINE] | 16 nM | –
8 | CCOC(=O)c1c(NC(=O)c2ccccc2)sc2c(O)c(CCN(C)C)ccc12 | 182 nM | –
9 | CCOC(=O)c1c(NC(=O)c2ccccc2)sc2c(O)c(CN3CCOCC3)ccc12 | 100 nM | –
10 | CCCN(CCC)Cc1ccc2c(C(=O)OCC)c(NC(=O)c3ccccc3)sc2c1O | 16 nM | –
11 | CCOC(=O)c1c(NC(=O)c2ccccc2)sc2c(O)c(CN(CC)CC)ccc12 | 27 nM | Stabilty [1]: Stable; t1/2 [2]: 11 min; Activity (Plasmodium berghei): inactive
12 | CCOC(=O)c1c(NC(=O)c2ccccc2)sc2c(O)c(CN(C)C)ccc12.Cl | 24 nM | solubility [3]: Insoluble; solubility [4]: Insoluble; Stabilty [5]: Stable; Stabilty [6]: Stable; Drug metabolism [7]: Metabolite detected; Stabilty [8]: Stable; Stabilty [9]: Unstable
13 | CCOC(=O)c1c(NC(=O)c2ccccc2)sc2c(O)c(CN3CCCCC3)ccc12 | 13 nM | –
14 | CCOC(=O)c1c(NC(=O)c2ccccc2)sc2c(O)c(CN3CCCC3)ccc12 | 16 nM | –
